Common to all, as to assay: NCI tumour cell line growth inhibition, 48 h
For test [1], the system named is OVCAR-4 ovarian.
Test [2] relates to LOX IMVI melanoma.
Test [3] deals with SF-268 CNS.
Test [4] relates to 786-0 renal.
Test [5] deals with HT29 colon.
For test [6], the system named is SK-MEL-28 melanoma.
The test system of test [7] is KM12 colon.
Test [8] deals with CCRF-CEM leukemia.
The test system of test [9] is SK-MEL-2 melanoma.
In test [10] the test system is NCI-H23 lung.
Test [11] has as its system U251 CNS.
The test system of test [12] is HS 578T breast.
Test [13] concerns HL-60(TB) leukemia.
Test [14] concerns MCF7 breast.
Test [15] has as its system NCI-H522 lung.

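Where inhibition never reached the appropriate level, the endpoint shown equals the highest concentration tested. Otherwise, values were interpolated linearly from a five-concentration, 48-hour dose response in 96-well plates. TGI is the concentration that stops growth completely.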

Turning to `CC1=CC[C@@]2(C)[C@@H]([C@@H]1C)[C@H]1CC[C@@H]3[C@@]4(C)CC[C@H](O)C(C)(C)[C@@H]4CC[C@@]3(C)[C@]1(C)C[C@@H]2O`, the TGI is over 82.2 µM in test [1]; 16 µM in test [2]; 25.2 µM in [3]; 42.2 µM in test [4]; 46 µM in test [5]; 13.9 µM in [6]. For the same compound, the TGI in [7] was over 74.8 µM; in [8], over 53.1 µM; in [9] it was over 59 µM; in test [10] it was over 55.1 µM; in test [11], 23.1 µM; in test [12] it was over 74 µM. Further, the TGI was over 100 µM in [13], over 100 µM in test [14] and 8.15 µM in test [15].
With `CC1=C/C(=N\N(C)C)C(C(O)(C(F)(F)F)C(F)(F)F)C(C)(C)C1` (stereo not given), the TGI in [1], in [2], in test [3], in [4], in [5] and in test [6] was over 100 µM each time. Besides, the TGI in test [7], in [8], in test [9], in [10], in test [11] and in test [12] was over 100 µM throughout. Moreover, the TGI in test [13], in test [14] and in test [15] was over 100 µM throughout.
With `COc1ccc(OC)c2c(=O)cc(-c3ccccc3)[nH]c12`, the TGI in [1], in test [2], in test [3], in [4], in test [5] and in test [6] was over 100 µM throughout. In addition, the TGI in test [7], in test [8], in [9], in test [10], in test [11] and in [12] was over 100 µM in each case. Moreover, the TGI in test [13], in test [14] and in test [15] was over 100 µM throughout.
On to `CCC1=NC(N/N=C/c2ccccc2O)=N/C1=C\c1ccccc1O`, for which the TGI in test [1] is over 31.3 µM; in test [2], over 42.9 µM; in [3], over 66.9 µM; in test [4] it was over 72.1 µM; in test [5], 37.5 µM; in test [6], over 100 µM. Further, the TGI in test [7] was over 66.1 µM; in test [8] it was over 100 µM; in [9], 66.2 µM; in [10], over 74.7 µM; in test [11], over 100 µM; in test [12] it was over 83.7 µM. Further, the TGI in test [13] is 10.6 µM; in test [14] it was over 76.1 µM; in [15], 21 µM.
For the compound `COc1ccc2c(c1)-c1c(c3ccccc3n1CCN1CCCCC1)CC2`, the TGI is over 100 µM in [1]; 33.3 µM in test [2]; over 95.5 µM in [3]; 41.9 µM in test [4]; 24.5 µM in test [5]; 99.2 µM in test [6]. Further, the TGI in test [7] is over 56.9 µM; in [8] it was 74 µM; in test [9] it was 16.7 µM; in test [10] it was 38.8 µM; in test [11], 56.7 µM; in test [12], over 65.7 µM. For the same compound, the TGI was 20.4 µM in test [13], over 80.8 µM in test [14] and 28.6 µM in [15].
As to `COC(=O)C(Cc1ccccc1)C(=O)NC(CNC(=O)OCc1ccccc1)C(=O)OCc1ccccc1` (stereo not given), the TGI was over 100 µM in [1]; 36 µM in test [2]; over 100 µM in test [3]; 62.7 µM in test [4]; over 61.2 µM in test [5]; 44 µM in [6]. Also, the TGI in test [7] was over 100 µM; in [8], 48.9 µM; in test [9] it was 97.4 µM; in [10], over 100 µM; in test [11], over 100 µM; in test [12] it was over 100 µM. The TGI was over 67.9 µM in [13], over 100 µM in test [14] and 72.3 µM in [15].
For `CC1=C(C(=O)OC23CC4CC(CC(C4)C2)C3)C(c2ccccc2OC(F)F)C(C(=O)OC23CC4CC(CC(C4)C2)C3)=C(C)N1` (stereo not given), the TGI in test [1], in test [2], in test [3], in test [4], in test [5] and in test [6] was over 100 µM each time. For the same compound, the TGI in [7], in [8], in test [9], in test [10], in test [11] and in test [12] was over 100 µM throughout. Moreover, the TGI in test [13], in test [14] and in [15] was over 100 µM in each case.
In the case of `CC1(C)C[C@H]2C3=CC[C@@H]4[C@@]5(C)CC[C@H](O)C(C)(C)[C@@H]5CC[C@@]4(C)[C@]3(C)C[C@@H](O)[C@@]23C[C@@H]1OC3=O`, the TGI in test [1], in test [2], in [3], in test [4], in test [5] and in test [6] was over 100 µM throughout. The TGI in [7], in [8], in test [9], in test [10], in [11] and in test [12] was over 100 µM in each case. Moreover, the TGI in test [13], in test [14] and in [15] was over 100 µM each time.
Take `COc1c(C(=O)O)cccc1-c1cccc(C(=O)NCCN(CCNC(=O)c2cccc(-c3cccc(C(=O)O)c3OC)c2OC)CCNC(=O)c2cccc(-c3cccc(C(=O)O)c3OC)c2OC)c1OC`: the TGI in test [1], in test [2], in test [3], in test [4], in test [5] and in test [6] was over 100 µM in each case. Further, the TGI in test [7] was over 100 µM; in test [8], over 100 µM; in test [9], over 100 µM; in test [10] it was over 100 µM; in [11] it was over 100 µM; in test [12], 81.1 µM. Also, the figures for the TGI in test [13], in test [14] and in test [15] were 65.4 µM, over 100 µM and 75.8 µM, respectively.

These data come from PubChem BioAssay (NCI).
